From PubChem BioAssay AID1963976 (Molecular Pharmacology Branch, DTP, NCI, 2024)
pIC50: −log10 of the molar value. “And” between values parts separate entries of the source, which are not always exact repeats. Equal entries are not always repeated.

Test system: 435261-313-R-J1-PDC tumor spheroid viability
Assay: Anticancer human tumor 435261-313-R-J1-PDC patient-derived colon adenocarcinoma cell line growth inhibition [PI3K]
Conditions: spheroids with HUVEC and MSC; for viability, T/C: stronger effect = lower value
Procedure, shortened: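 Multi-cell spheroids combine tumor cells with HUVEC and human MSCs, treated with targeted agents alone or with inavolisib, alpelisib, duvelisib or copanlisib. Concentrations fall in half-log steps from at or near clinical Cmax, or from 10 microM where Cmax is unknown; viability read-out.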

[1] = curve of first compound, second compound 0.0316 µM
[2] = curve of first compound, second compound 0.1 µM
[3] = curve of first compound, second compound 0.316 µM
[4] = curve of first compound, second compound 1 µM
[5] = second compound 0.0316 µM, first compound 0.0316 µM
[6] = second compound 0.0316 µM, first compound 0.1 µM
[7] = second compound 0.0316 µM, first compound 0.316 µM
[8] = second compound 0.0316 µM, first compound 1 µM
[9] = second compound 0.0316 µM, first compound 3.16 µM
[10] = second compound 0.0316 µM, first compound 10 µM
[11] = second compound 0.1 µM, first compound 0.0316 µM
[12] = second compound 0.1 µM, first compound 0.1 µM
[13] = second compound 0.1 µM, first compound 0.316 µM
[14] = second compound 0.1 µM, first compound 1 µM
[15] = second compound 0.1 µM, first compound 3.16 µM
[16] = second compound 0.1 µM, first compound 10 µM
[17] = second compound 0.316 µM, first compound 0.0316 µM
[18] = second compound 0.316 µM, first compound 0.1 µM
[19] = second compound 0.316 µM, first compound 0.316 µM
[20] = second compound 0.316 µM, first compound 1 µM
[21] = second compound 0.316 µM, first compound 3.16 µM
[22] = second compound 0.316 µM, first compound 10 µM
[23] = second compound 1 µM, first compound 0.0316 µM
[24] = second compound 1 µM, first compound 0.1 µM
[25] = second compound 1 µM, first compound 0.316 µM
[26] = second compound 1 µM, first compound 1 µM
[27] = second compound 1 µM, first compound 3.16 µM
[28] = second compound 1 µM, first compound 10 µM
[29] = curve of first compound, second compound 0.00316 µM
[30] = curve of first compound, second compound 0.01 µM
[31] = second compound 0.00316 µM, first compound 0.0316 µM
[32] = second compound 0.00316 µM, first compound 0.1 µM
[33] = second compound 0.00316 µM, first compound 0.316 µM
[34] = second compound 0.00316 µM, first compound 1 µM
[35] = second compound 0.00316 µM, first compound 3.16 µM
[36] = second compound 0.00316 µM, first compound 10 µM
[37] = second compound 0.01 µM, first compound 0.0316 µM
[38] = second compound 0.01 µM, first compound 0.1 µM
[39] = second compound 0.01 µM, first compound 0.316 µM
[40] = second compound 0.01 µM, first compound 1 µM
[41] = second compound 0.01 µM, first compound 3.16 µM
[42] = second compound 0.01 µM, first compound 10 µM
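Also: spheroids exposed to compounds for 7 days.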

For `Cn1nccc1Nc1nccc(-c2ccn(C(CO)c3ccc(Cl)c(F)c3)c(=O)c2)n1` (stereo not drawn) + Cc1nc(NC(=O)N2CCCC2C(N)=O)sc1-c1ccnc(C(C)(C)C(F)(F)F)c1, the pIC50 [1] was 6.83, the pIC50 [2] was 6.92 and the pIC50 [3] was greater than 7.50. It also gave a pIC50 [4] greater than 7.50, a pIC50 (curve of first compound, second compound 3.16 µM) greater than 7.50 and a pIC50 (curve of first compound, second compound 10 µM) greater than 7.50. For the same molecule, the viability, T/C [5] was 62.5%, the viability, T/C [6] was 58.2% and the viability, T/C [7] was 37%. For the same molecule, the viability, T/C [8] was 24.5%, the viability, T/C [9] was 20.9% and the viability, T/C [10] was 11.4%. The viability, T/C [11] was 53.1%, the viability, T/C [12] was 54.8% and the viability, T/C [13] was 32.4%. It also gave a viability, T/C [14] of 18.5%, a viability, T/C [15] of 17.9% and a viability, T/C [16] of 10.8%. It also gave a viability, T/C [17] of 36%, a viability, T/C [18] of 36.4% and a viability, T/C [19] of 21.3%. For the same molecule, the viability, T/C [20] was 12.9%, the viability, T/C [21] was 14% and the viability, T/C [22] was 7.34%. It also gave a viability, T/C [23] of 19.1%, a viability, T/C [24] of 18.9% and a viability, T/C [25] of 11.6%. For the same molecule, the viability, T/C [26] was 8%, the viability, T/C [27] was 7.78% and the viability, T/C [28] was 3.02%. It also gave a viability, T/C (second compound 3.16 µM, first compound 0.0316 µM) of 13.6%, a viability, T/C (second compound 3.16 µM, first compound 0.1 µM) of 10.8% and a viability, T/C (second compound 3.16 µM, first compound 0.316 µM) of 9.01%. The viability, T/C (second compound 3.16 µM, first compound 1 µM) was 4.15%, the viability, T/C (second compound 3.16 µM, first compound 3.16 µM) was 3.68% and the viability, T/C (second compound 3.16 µM, first compound 10 µM) was 1.12%. For the same molecule, the viability, T/C (second compound 10 µM, first compound 0.0316 µM) was 7.41%, the viability, T/C (second compound 10 µM, first compound 0.1 µM) was 4.45% and the viability, T/C (second compound 10 µM, first compound 0.316 µM) was 2.55%. For the same molecule, the viability, T/C (second compound 10 µM, first compound 1 µM) was 1.89%, the viability, T/C (second compound 10 µM, first compound 3.16 µM) was 0.52% and the viability, T/C (second compound 10 µM, first compound 10 µM) was 0.24%.
In the case of `CC(Nc1ccc2c(c1)OCCn1cc(N3C(=O)OCC3C(F)F)nc1-2)C(N)=O` (stereo not drawn), the viability, T/C (compound 0.1 µM) was 31.2% [middle of 7 runs], the viability, T/C (compound 0.316 µM) was 23.1% [middle of 7 runs] and the viability, T/C (compound 1 µM) was 20.4% [middle of 7 runs].
Work on `C[C@@H](NC(=O)c1ncnc(N)c1Cl)c1ncc(C(=O)Nc2cc(C(F)(F)F)c(Cl)cn2)s1` + COc1c(OCCCN2CCOCC2)ccc2c3n(c(=NC(=O)c4cnc(N)nc4)nc12)CCN3 yielded a pIC50 [29] of less than 5.00, a pIC50 [30] of less than 5.00 and a pIC50 [1] greater than 7.50. The pIC50 [2] was greater than 7.50, the pIC50 [3] was greater than 7.50 and the pIC50 [4] was greater than 7.50. It also gave a viability, T/C [31] of 133%, a viability, T/C [32] of 138% and a viability, T/C [33] of 70%. For the same molecule, the viability, T/C [34] was 120%, the viability, T/C [35] was 99.2% and the viability, T/C [36] was 78.6%. The viability, T/C [37] was 66.2%, the viability, T/C [38] was 70.4% and the viability, T/C [39] was 69.8%. The viability, T/C [40] was 103%, the viability, T/C [41] was 63.3% and the viability, T/C [42] was 53.2%. It also gave a viability, T/C [5] of 32.7%, a viability, T/C [6] of 33.6% and a viability, T/C [7] of 47.5%. For the same molecule, the viability, T/C [8] was 30.1%, the viability, T/C [9] was 37.8% and the viability, T/C [10] was 17.5%. For the same molecule, the viability, T/C [11] was 20.4%, the viability, T/C [12] was 21.7% and the viability, T/C [13] was 22%. The viability, T/C [14] was 19.5%, the viability, T/C [15] was 18.2% and the viability, T/C [16] was 8.2%. For the same molecule, the viability, T/C [17] was 10.8%, the viability, T/C [18] was 13.1% and the viability, T/C [19] was 12.2%. The viability, T/C [20] was 13.3%, the viability, T/C [21] was 10.5% and the viability, T/C [22] was 3.91%. It also gave a viability, T/C [23] of 5.11%, a viability, T/C [24] of 6.44% and a viability, T/C [25] of 7.13%. For the same molecule, the viability, T/C [26] was 7.09%, the viability, T/C [27] was 5.4% and the viability, T/C [28] was 2.3%.
In the case of `CC(Nc1ncnc2nc[nH]c12)c1cc2cccc(Cl)c2c(=O)n1-c1ccccc1` (stereo not drawn), the viability, T/C (compound 1 µM) was 77.1% [middle of 7 runs] and the viability, T/C (compound 3.16 µM) was 70.9% [middle of 7 runs].
With `CC1(C)CCC(Nc2ncc(C(F)(F)F)c(-c3c[nH]c4c(P(C)(C)=O)c(C#N)ccc34)n2)CN1` (stereo not drawn) + CC(Nc1ccc2c(c1)OCCn1cc(N3C(=O)OCC3C(F)F)nc1-2)C(N)=O the pIC50 [29] was 5.92, the pIC50 [30] was 5.98 and the pIC50 [1] was greater than 7.50. The pIC50 [2] was greater than 7.50, the pIC50 [3] was greater than 7.50 and the pIC50 [4] was greater than 7.50. The viability, T/C [31] was 46.7%, the viability, T/C [32] was 58.8% and the viability, T/C [33] was 43.8%. It also gave a viability, T/C [34] of 58.8%, a viability, T/C [35] of 39.4% and a viability, T/C [36] of 0.93%. The viability, T/C [37] was 52%, the viability, T/C [38] was 53.4% and the viability, T/C [39] was 48%. For the same molecule, the viability, T/C [40] was 51.3%, the viability, T/C [41] was 38.6% and the viability, T/C [42] was 0.98%. The viability, T/C [5] was 44.4%, the viability, T/C [6] was 47.9% and the viability, T/C [7] was 38.8%. For the same molecule, the viability, T/C [8] was 40.8%, the viability, T/C [9] was 33.4% and the viability, T/C [10] was 0.99%. It also gave a viability, T/C [11] of 30%, a viability, T/C [12] of 31.6% and a viability, T/C [13] of 27.2%. For the same molecule, the viability, T/C [14] was 30.2%, the viability, T/C [15] was 24.5% and the viability, T/C [16] was 0.45%. For the same molecule, the viability, T/C [17] was 24.2%, the viability, T/C [18] was 22.8% and the viability, T/C [19] was 20.1%. For the same molecule, the viability, T/C [20] was 20.2%, the viability, T/C [21] was 15% and the viability, T/C [22] was 0.63%. It also gave a viability, T/C [23] of 20.9%, a viability, T/C [24] of 15% and a viability, T/C [25] of 17%. The viability, T/C [26] was 18.8%, the viability, T/C [27] was 10.4% and the viability, T/C [28] was 0.26%.
With `CC(C)n1nc(-c2ccc3oc(N)nc3c2)c2c(N)ncnc21` the viability, T/C (compound 0.000316 µM) was 75.7% and 66.3%, the viability, T/C (compound 0.001 µM) was 119% and 65.3% and the viability, T/C (compound 0.00316 µM) was 86.6% and 58.6%. The viability, T/C (compound 0.01 µM) was 67.3% and 48.3%, the viability, T/C (compound 0.0316 µM) was 60.8% and 46.7% and the viability, T/C (compound 0.1 µM) was 18.7% and 12.7%. For the same molecule, the pIC50 (curve of compound) was 7.42 and 7.84.
